# From PubChem BioAssay (NCI)
#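 A five-concentration, 48-hour dose response in 96-well plates underlies each endpoint, interpolated linearly between surrounding concentrations. Abbreviation: GI50, concentration required for 50% inhibition of growth. TGI: total growth inhibition.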
# Tests used:
# Experiment in all cases: inhibition of tumour cell growth, NCI panel, 48 h
# 786-0 renal = test system: 786-0 renal
# A498 renal = test system: A498 renal
# A549 NSCLC = test system: A549 NSCLC
# ACHN renal = test system: ACHN renal
# BT-549 breast = test system: BT-549 breast
# CAKI-1 renal = test system: CAKI-1 renal
# CCRF-CEM leukemia = test system: CCRF-CEM leukemia
# COLO 205 colon = test system: COLO 205 colon
# DU-145 prostate = test system: DU-145 prostate
# EKVX NSCLC = test system: EKVX NSCLC
# HCC-2998 colon = test system: HCC-2998 colon
# HCT-116 colon = test system: HCT-116 colon
# HCT-15 colon = test system: HCT-15 colon
# HL-60(TB) leukemia = test system: HL-60(TB) leukemia
# HOP-62 NSCLC = test system: HOP-62 NSCLC
# HOP-92 NSCLC = test system: HOP-92 NSCLC
# HS 578T breast = test system: HS 578T breast
# HT29 colon = test system: HT29 colon
# IGROV1 ovarian = test system: IGROV1 ovarian
# K-562 leukemia = test system: K-562 leukemia
# KM12 colon = test system: KM12 colon
# LOX IMVI melanoma = test system: LOX IMVI melanoma
# M14 melanoma = test system: M14 melanoma
# MALME-3M melanoma = test system: MALME-3M melanoma
# MCF7 breast = test system: MCF7 breast
# MDA-MB-231 breast = test system: MDA-MB-231 breast
# MDA-MB-435 = test system: MDA-MB-435
# MDA-MB-468 breast = test system: MDA-MB-468 breast
# MOLT-4 leukemia = test system: MOLT-4 leukemia
# NCI-H226 lung = test system: NCI-H226 lung
structure (smiles),measurement,setting,value
COc1ccccc1/C=C/c1cccc(NC(=S)NCCCCN(C)C)c1,GI50,786-0 renal,15.8 µM
same,TGI,786-0 renal,33.4 µM
same,GI50,A498 renal,16.5 µM
same,TGI,A498 renal,30.3 µM
same,GI50,A549 NSCLC,16.3 µM
same,TGI,A549 NSCLC,34.4 µM
same,GI50,ACHN renal,15.7 µM
same,TGI,ACHN renal,29.1 µM
same,GI50,BT-549 breast,17.6 µM
same,TGI,BT-549 breast,33.3 µM
same,GI50,CAKI-1 renal,14.5 µM
same,TGI,CAKI-1 renal,27.8 µM
same,GI50,CCRF-CEM leukemia,12 µM
same,TGI,CCRF-CEM leukemia,29.5 µM
same,GI50,COLO 205 colon,13.6 µM
same,TGI,COLO 205 colon,29.9 µM
same,GI50,DU-145 prostate,15.9 µM
same,TGI,DU-145 prostate,32.5 µM
same,GI50,EKVX NSCLC,14.9 µM
same,TGI,EKVX NSCLC,31.3 µM
same,GI50,HCC-2998 colon,13.2 µM
same,TGI,HCC-2998 colon,27.2 µM
same,GI50,HCT-116 colon,11.8 µM
same,TGI,HCT-116 colon,28.6 µM
same,GI50,HCT-15 colon,8.09 µM
same,TGI,HCT-15 colon,21.6 µM
same,GI50,HL-60(TB) leukemia,12.4 µM
same,TGI,HL-60(TB) leukemia,29.7 µM
same,GI50,HOP-62 NSCLC,16.2 µM
same,TGI,HOP-62 NSCLC,32.3 µM
same,GI50,HOP-92 NSCLC,10.1 µM
same,TGI,HOP-92 NSCLC,25.9 µM
same,GI50,HS 578T breast,18.3 µM
same,TGI,HS 578T breast,45.2 µM
same,GI50,HT29 colon,5.8 µM
same,TGI,HT29 colon,20.6 µM
same,GI50,IGROV1 ovarian,17 µM
same,TGI,IGROV1 ovarian,32.3 µM
same,GI50,K-562 leukemia,3.07 µM
same,TGI,K-562 leukemia,13.3 µM
same,GI50,KM12 colon,16.1 µM
same,TGI,KM12 colon,32.1 µM
same,GI50,LOX IMVI melanoma,11.7 µM
same,TGI,LOX IMVI melanoma,25 µM
same,GI50,M14 melanoma,12.1 µM
same,TGI,M14 melanoma,26.5 µM
same,GI50,MALME-3M melanoma,15.8 µM
same,TGI,MALME-3M melanoma,29.8 µM
same,GI50,MCF7 breast,10.4 µM
same,TGI,MCF7 breast,24.2 µM
same,GI50,MDA-MB-231 breast,14.1 µM
same,TGI,MDA-MB-231 breast,27.8 µM
same,GI50,MDA-MB-435,3.82 µM
same,TGI,MDA-MB-435,15.7 µM
same,GI50,MDA-MB-468 breast,10.1 µM
same,TGI,MDA-MB-468 breast,22.6 µM
same,GI50,MOLT-4 leukemia,13.3 µM
same,TGI,MOLT-4 leukemia,32.2 µM
same,GI50,NCI-H226 lung,10.2 µM
